PMC11062894, “Protein-based bandpass filters for controlling cellular signaling with chemical inputs” (Nature Chemical Biology, 2023)
Where “and” joins values, the source holds several entries; their conditions need not be identical. Equal values may be shown once.

System: GEMS receptors with CBPvene (Bcl2–LD3 and Bcl2high variants), STAT3-driven SEAP in HEK293T cells
Test: GEMS SEAP reporter assay, CBPvene (Bcl2high, LD3-v and Bcl2-v variants) with venetoclax
Assay type: cell-based
Conditions: for SEAP / SEAP normalized (max=100): Supp Fig 10a
[1] = CBPVene-v5-Bcl2v2, Venetoclax 1000 nM
[2] = CBPVene-v5-Bcl2v2, Venetoclax 3160 nM
[3] = CBPVene-v5-Bcl2v2, Venetoclax 10000 nM
[4] = CBPVene-v5-LD3v1, Venetoclax 1 nM
[5] = CBPVene-v5-LD3v1, Venetoclax 3.16 nM
[6] = CBPVene-v5-LD3v1, Venetoclax 10 nM
[7] = CBPVene-v5-LD3v1, Venetoclax 31.6 nM
[8] = CBPVene-v5-LD3v1, Venetoclax 316 nM
[9] = CBPVene-v5-LD3v1, Venetoclax 1000 nM
[10] = CBPVene-v5-LD3v1, Venetoclax 10000 nM

Q: Which “Normalized data Figure 5f” value [1] does the source give for `CC1(C)CCC(CN2CCN(c3ccc(C(=O)NS(=O)(=O)c4ccc(NCC5CCOCC5)c([N+](=O)[O-])c4)c(Oc4cnc5[nH]ccc5c4)c3)CC2)=C(c2ccc(Cl)cc2)C1` [Venetoclax] here?
A: 77.3797 and 77.4841 and 64.4738

Q: What about the “Raw data Figure 5f” value [1] of the same compound?
A: 141.449 and 149.007 and 144.09

Q: And the “Normalized data Figure 5f” value [2]?
A: 35.229 and 32.7238 and 23.2546

Q: And the “Raw data Figure 5f” value [2]?
A: 64.398 and 62.9303 and 51.9708

Q: What about the “Normalized data Figure 5f” value [3] of the same compound?
A: 15.1423 and 11.3283 and 13.9843

Q: What about the “Raw data Figure 5f” value [3] of the same compound?
A: 27.6798 and 21.7852 and 31.253

Q: What about the “Raw data of Independent repeat of CBPVene-v5 vs CBPVene-v5-LD3v1” value (shortened to “Raw data … vs CBPVene-v5-LD3v1”) (CBPVene-v5-LD3v1, Venetoclax 0.01 nM) of the same compound?
A: 12.511 and 11.9088 and 12.8792

Q: And the “Normalized data Figure 5c” value [4]?
A: 16.3682 and 15.9533 and 20.5713

Q: And the “Raw data Figure 5c” value [4]?
A: 17.8707 and 19.0514 and 21.7836

Q: And the “Raw data … vs CBPVene-v5-LD3v1” value [4]?
A: 12.1852 and 11.7838 and 11.0502

Q: What about the “Normalized data Figure 5c” value [5] of the same compound?
A: 15.1322 and 15.2538 and 18.8062

Q: What about the “Raw data Figure 5c” value [5] of the same compound?
A: 16.5212 and 18.216 and 19.9144

Q: And the “Raw data … vs CBPVene-v5-LD3v1” value [5]?
A: 10.1265 and 10.196 and 11.563

Q: And the “Normalized data Figure 5c” value [6]?
A: 22.3408 and 21.0089 and 24.5666

Q: What about the “Raw data Figure 5c” value [6] of the same compound?
A: 24.3915 and 25.0888 and 26.0143

Q: And the “Raw data … vs CBPVene-v5-LD3v1” value [6]?
A: 13.7645 and 12.6779 and 10.7132

Q: What about the “Normalized data Figure 5c” value [7] of the same compound?
A: 35.5947 and 28.4669 and 38.0182

Q: What about the “Raw data Figure 5c” value [7] of the same compound?
A: 38.8619 and 33.9951 and 40.2586

Q: What about the “Raw data … vs CBPVene-v5-LD3v1” value [7] of the same compound?
A: 17.7633 and 18.8924 and 25.5

Q: What about the “Raw data … vs CBPVene-v5-LD3v1” value (CBPVene-v5-LD3v1, Venetoclax 100 nM) of the same compound?
A: 38.3822 and 37.0306 and 47.6081

Q: And the “Normalized data Figure 5c” value [8]?
A: 100

Q: And the “Raw data Figure 5c” value [8]?
A: 109.179 and 119.42 and 105.893

Q: What about the “Raw data … vs CBPVene-v5-LD3v1” value [8] of the same compound?
A: 60.7806 and 63.7576 and 57.9589

Q: And the “Normalized data Figure 5c” value [9]?
A: 77.7899 and 68.2523 and 65.7986

Q: And the “Raw data Figure 5c” value [9]?
A: 84.9301 and 81.5067 and 69.6762

Q: What about the “Raw data … vs CBPVene-v5-LD3v1” value [9] of the same compound?
A: 40.6135 and 38.6218 and 45.893

Q: And the “Raw data … vs CBPVene-v5-LD3v1” value (CBPVene-v5-LD3v1, Venetoclax 3160 nM)?
A: 20.9864 and 23.9183 and 23.9906

Q: And the “Normalized data Figure 5c” value [10]?
A: 10.3166 and 8.27 and 9.621

Q: What about the “Raw data Figure 5c” value [10] of the same compound?
A: 11.2636 and 9.876 and 10.1879

Q: And the “SEAP (U/L)” value (Figure 4h, Venetoclax 1 nM, representative data and independent repeats 1, 2 (triplicates))?
A: 40.3558 U/L and 36.3798 U/L and 44.7796 U/L and 29.5956 U/L and 26.0853 U/L and 29.9849 U/L

Q: And the SEAP (Bcl2-v1, venetoclax 316 nM)?
A: 16.9918

Q: What about the “SEAP normalized (max=100)” value (Bcl2-v1, venetoclax 316 nM) of the same compound?
A: 72.9686

Q: And the SEAP (Bcl2-v1, venetoclax 1000 nM)?
A: 11.8168

Q: And the “SEAP normalized (max=100)” value (Bcl2-v1, venetoclax 1000 nM)?
A: 50.7451

Q: What about the SEAP (Bcl2-v1, venetoclax 3160 nM) of the same compound?
A: 18.4889

Q: And the “SEAP normalized (max=100)” value (Bcl2-v1, venetoclax 3160 nM)?
A: 79.3975

Q: What about the SEAP (Bcl2-v1, venetoclax 10000 nM) of the same compound?
A: 5.997

Q: And the “SEAP normalized (max=100)” value (Bcl2-v1, venetoclax 10000 nM)?
A: 25.7548

Q: What about the SEAP (Bcl2-v2, venetoclax 316 nM) of the same compound?
A: 33.4045

Q: And the “SEAP normalized (max=100)” value (Bcl2-v2, venetoclax 316 nM)?
A: 100

Q: What about the SEAP (Bcl2-v2, venetoclax 1000 nM) of the same compound?
A: 18.2725

Q: And the “SEAP normalized (max=100)” value (Bcl2-v2, venetoclax 1000 nM)?
A: 54.7009

Q: What about the SEAP (Bcl2-v2, venetoclax 3160 nM) of the same compound?
A: 17.6043

Q: What about the “SEAP normalized (max=100)” value (Bcl2-v2, venetoclax 3160 nM) of the same compound?
A: 52.7004

Q: What about the SEAP (Bcl2-v2, venetoclax 10000 nM) of the same compound?
A: 8.798

Q: What about the “SEAP normalized (max=100)” value (Bcl2-v2, venetoclax 10000 nM) of the same compound?
A: 26.337

Q: What about the SEAP (Bcl2-v3, venetoclax 316 nM) of the same compound?
A: 24.8752

Q: What about the “SEAP normalized (max=100)” value (Bcl2-v3, venetoclax 316 nM) of the same compound?
A: 70.756

Q: And the SEAP (Bcl2-v3, venetoclax 1000 nM)?
A: 15.674

Q: What about the “SEAP normalized (max=100)” value (Bcl2-v3, venetoclax 1000 nM) of the same compound?
A: 44.5837

Q: And the SEAP (Bcl2-v3, venetoclax 3160 nM)?
A: 8.48

Q: And the “SEAP normalized (max=100)” value (Bcl2-v3, venetoclax 3160 nM)?
A: 24.1195

Q: And the SEAP (Bcl2-v3, venetoclax 10000 nM)?
A: 5.027

Q: What about the “SEAP normalized (max=100)” value (Bcl2-v3, venetoclax 10000 nM) of the same compound?
A: 14.2997

Q: What about the SEAP (Bcl2-v4, venetoclax 316 nM) of the same compound?
A: 20.3221

Q: And the “SEAP normalized (max=100)” value (Bcl2-v4, venetoclax 316 nM)?
A: 44.5121

Q: And the SEAP (Bcl2-v4, venetoclax 1000 nM)?
A: 12.5122

Q: And the “SEAP normalized (max=100)” value (Bcl2-v4, venetoclax 1000 nM)?
A: 27.4059

Q: What about the SEAP (Bcl2-v4, venetoclax 3160 nM) of the same compound?
A: 8.91

Q: What about the “SEAP normalized (max=100)” value (Bcl2-v4, venetoclax 3160 nM) of the same compound?
A: 19.5153

Q: What about the SEAP (Bcl2-v4, venetoclax 10000 nM) of the same compound?
A: 6.178

Q: And the “SEAP normalized (max=100)” value (Bcl2-v4, venetoclax 10000 nM)?
A: 13.5319

Q: What about the SEAP (Bcl2-v5, venetoclax 316 nM) of the same compound?
A: 16.3938

Q: What about the “SEAP normalized (max=100)” value (Bcl2-v5, venetoclax 316 nM) of the same compound?
A: 41.8642

Q: What about the SEAP (Bcl2-v5, venetoclax 1000 nM) of the same compound?
A: 8.859

Q: What about the “SEAP normalized (max=100)” value (Bcl2-v5, venetoclax 1000 nM) of the same compound?
A: 22.6219

Q: What about the SEAP (Bcl2-v5, venetoclax 3160 nM) of the same compound?
A: 8.087

Q: And the “SEAP normalized (max=100)” value (Bcl2-v5, venetoclax 3160 nM)?
A: 20.652

Q: And the SEAP (Bcl2-v5, venetoclax 10000 nM)?
A: 5.778

Q: What about the “SEAP normalized (max=100)” value (Bcl2-v5, venetoclax 10000 nM) of the same compound?
A: 14.7539

Q: What about the SEAP (Bcl2-v6, venetoclax 316 nM) of the same compound?
A: 25.9953

Q: And the “SEAP normalized (max=100)” value (Bcl2-v6, venetoclax 316 nM)?
A: 62.1077
